Measured values: PubChem BioAssay AID248 (DTP/NCI, 2004)
Several values for one entry are separate records, joined by “and”; a condition that tells them apart may be missing. Identical values can stand only once. Toxic doses and inconclusive results are not listed. Cut-off read from the data, not from the text of the source: active = T/C of 150% or more; inactive = T/C below 125%.

Tested on: L1210 leukemia ip in BDF1 mice, survival T/C
Assay: NCI In Vivo Anticancer Drug Screen. Data for tumor model L1210 Leukemia (intraperitoneal) in B6D2F1 (BDF1) mice
Conditions: higher = longer survival
Method in brief: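 Read-out is survival time, reported as the treated-group measurement over the vehicle-control measurement.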

[1] = endpoint: mean survival time, dose: 25.0 mg/kg/injection, schedule: Q04DX003 (ip), vehicle: saline
[2] = endpoint: mean survival time, dose: 50.0 mg/kg/injection, schedule: Q04DX003 (ip), vehicle: saline
[3] = endpoint: mean survival time, dose: 100.0 mg/kg/injection, schedule: Q04DX003 (ip), vehicle: saline
[4] = endpoint: mean survival time, dose: 100.0 mg/kg/injection, schedule: Q01DX009 (ip), vehicle: Klucel (hydroxypropylcellulose) (HPC)
[5] = endpoint: mean survival time, dose: 100.0 mg/kg/injection, schedule: Q04DX003 (ip), vehicle: Klucel (hydroxypropylcellulose) (HPC)
[6] = endpoint: mean survival time, dose: 200.0 mg/kg/injection, schedule: Q01DX009 (ip), vehicle: Klucel (hydroxypropylcellulose) (HPC)
[7] = endpoint: mean survival time, dose: 100.0 mg/kg/injection, schedule: Q01DX001 (ip), vehicle: carboxymethylcellulose (CMC)
[8] = endpoint: mean survival time, dose: 200.0 mg/kg/injection, schedule: Q01DX001 (ip), vehicle: carboxymethylcellulose (CMC)
[9] = endpoint: mean survival time, dose: 400.0 mg/kg/injection, schedule: Q01DX001 (ip), vehicle: carboxymethylcellulose (CMC)
[10] = endpoint: mean survival time, dose: 200.0 mg/kg/injection, schedule: Q04DX003 (ip), vehicle: saline
[11] = endpoint: mean survival time, dose: 400.0 mg/kg/injection, schedule: Q04DX003 (ip), vehicle: saline
[12] = endpoint: mean survival time, dose: 200.0 mg/kg/injection, schedule: Q04DX003 (ip), vehicle: Klucel (hydroxypropylcellulose) (HPC)
[13] = endpoint: mean survival time, dose: 400.0 mg/kg/injection, schedule: Q04DX003 (ip), vehicle: Klucel (hydroxypropylcellulose) (HPC)

Measured: T/C

CN(C)CC(=O)CC12CC3CC(CC(C3)C1)C2
inactive: endpoint: mean survival time, dose: 100.0 mg/kg/injection, schedule: Q04DX002 (ip), vehicle: saline 94 % of control | endpoint: mean survival time, dose: 200.0 mg/kg/injection, schedule: Q04DX002 (ip), vehicle: saline 100 % of control | endpoint: mean survival time, dose: 400.0 mg/kg/injection, schedule: Q04DX002 (ip), vehicle: saline 89 % of control

NC(C(=O)O)c1cccc(F)c1 (stereo not given)
inactive: endpoint: mean survival time, dose: 50.0 mg/kg/injection, schedule: Q01DX001 (ip), vehicle: saline 98 % of control | endpoint: mean survival time, dose: 100.0 mg/kg/injection, schedule: Q01DX001 (ip), vehicle: saline 101 % of control | endpoint: mean survival time, dose: 200.0 mg/kg/injection, schedule: Q01DX001 (ip), vehicle: saline 101 % of control | endpoint: mean survival time, dose: 400.0 mg/kg/injection, schedule: Q01DX001 (ip), vehicle: saline 95 % of control

CCN(CC)CCn1c2ccncc2c2cnccc21
inactive: [1] 96 % of control | [2] 101 % of control | [3] 103 % of control

Nc1cc(N)nc(S(=O)O)n1
inactive: [1] 93 % of control | endpoint: mean survival time, dose: 44.0 mg/kg/injection, schedule: Q01DX Z (ip), vehicle: saline 119 % of control | endpoint: mean survival time, dose: 50.0 mg/kg/injection, schedule: Q01DX009 (ip), vehicle: Klucel (hydroxypropylcellulose) (HPC) 95 % of control | [2] 92 % of control | endpoint: mean survival time, dose: 66.0 mg/kg/injection, schedule: Q01DX Z (ip), vehicle: saline 113 % of control | [4] 95 % of control | endpoint: mean survival time, dose: 100.0 mg/kg/injection, schedule: Q01DX Z (ip), vehicle: saline 101 % of control | [5] 107 % of control | [3] 101 % of control | [6] 89 % of control

Cc1c2c(c(C)c3c4c(oc13)CCCC4)C=NCC2
inactive: [7] 95 % of control | [8] 92 % of control | [9] 92 % of control

CN(C)c1ccc(S(=O)(=O)Cl)cc1[N+](=O)[O-]
inactive: [3] 104 % of control | [10] 107 % of control | [11] 101 % of control

Cc1ccc2c(c1)P(=O)(O)c1cc(Cl)ccc1O2
inactive: endpoint: mean survival time, dose: 50.0 mg/kg/injection, schedule: Q01DX009 (ip), vehicle: saline 98 % of control | endpoint: mean survival time, dose: 100.0 mg/kg/injection, schedule: Q01DX009 (ip), vehicle: saline 100 % of control | endpoint: mean survival time, dose: 200.0 mg/kg/injection, schedule: Q01DX009 (ip), vehicle: saline 102 % of control | endpoint: mean survival time, dose: 400.0 mg/kg/injection, schedule: Q01DX009 (ip), vehicle: saline 98 % of control | endpoint: median survival time, dose: 64.8 mg/kg/injection, schedule: Q01DX009 (ip), vehicle: water 109 % of control | endpoint: median survival time, dose: 108.0 mg/kg/injection, schedule: Q01DX009 (ip), vehicle: water 107 % of control | endpoint: median survival time, dose: 130.0 mg/kg/injection, schedule: Q04DX003 (ip), vehicle: water 103 % of control | endpoint: median survival time, dose: 180.0 mg/kg/injection, schedule: Q01DX009 (ip), vehicle: water 109 % of control | endpoint: median survival time, dose: 216.0 mg/kg/injection, schedule: Q04DX003 (ip), vehicle: water 102 % of control | endpoint: median survival time, dose: 300.0 mg/kg/injection, schedule: Q01DX009 (ip), vehicle: water 112 % of control | endpoint: median survival time, dose: 360.0 mg/kg/injection, schedule: Q04DX003 (ip), vehicle: water 103 % of control

COC(=O)c1cccc2cnccc12
inactive: [5] 107 % of control | [12] 110 % of control | [13] 96 % of control

O=S(Cc1ncc2cnccn12)c1ccccc1 (stereo not given)
inactive: endpoint: mean survival time, dose: 50.0 mg/kg/injection, schedule: Q01DX005 (ip), vehicle: saline 110 % of control | endpoint: mean survival time, dose: 100.0 mg/kg/injection, schedule: Q01DX005 (ip), vehicle: saline 104 % of control | [3] 101 % of control | endpoint: mean survival time, dose: 200.0 mg/kg/injection, schedule: Q01DX005 (ip), vehicle: saline 104 % of control | [10] 105 % of control | endpoint: mean survival time, dose: 400.0 mg/kg/injection, schedule: Q01DX005 (ip), vehicle: saline 105 % of control | [11] 105 % of control

COc1ccc(C2C(=O)NN=C2C)cc1 (stereo not given)
inactive: [7] 96 % of control | [8] 96 % of control | [9] 102 % of control

CSc1ccc(NC(=O)NS(=O)(=O)c2ccc(C)cc2)cc1
inactive: endpoint: mean survival time, dose: 100.0 mg/kg/injection, schedule: Q01DX009 (ip), vehicle: saline with Tween-80 88 % of control and 91 % of control | endpoint: mean survival time, dose: 100.0 mg/kg/injection, schedule: Q04DX002 (ip), vehicle: saline with Tween-80 96 % of control | endpoint: mean survival time, dose: 100.0 mg/kg/injection, schedule: Q04DX003 (ip), vehicle: saline with Tween-80 95 % of control | endpoint: mean survival time, dose: 200.0 mg/kg/injection, schedule: Q01DX009 (ip), vehicle: saline with Tween-80 97 % of control and 91 % of control | endpoint: mean survival time, dose: 200.0 mg/kg/injection, schedule: Q04DX002 (ip), vehicle: saline with Tween-80 89 % of control | endpoint: mean survival time, dose: 200.0 mg/kg/injection, schedule: Q04DX003 (ip), vehicle: saline with Tween-80 89 % of control | endpoint: mean survival time, dose: 400.0 mg/kg/injection, schedule: Q01DX009 (ip), vehicle: saline with Tween-80 87 % of control | endpoint: mean survival time, dose: 400.0 mg/kg/injection, schedule: Q04DX002 (ip), vehicle: saline with Tween-80 100 % of control and 86 % of control | endpoint: mean survival time, dose: 400.0 mg/kg/injection, schedule: Q04DX003 (ip), vehicle: saline with Tween-80 90 % of control

O=C(COc1ccc(Cl)cc1)Nc1cc(C(F)(F)F)ccc1Cl
inactive: [4] 94 % of control | [5] 98 % of control | [6] 86 % of control | [12] 93 % of control | endpoint: mean survival time, dose: 400.0 mg/kg/injection, schedule: Q01DX009 (ip), vehicle: Klucel (hydroxypropylcellulose) (HPC) 86 % of control | [13] 95 % of control
